Test [1] deals with A-431. In words: Antiproliferative activity in human A431 Cells after 72 hrs by SRB assay. The format is functional, cell-based. Conditions: A-431, 72 h. (The SRB assay estimates cell density from bound dye.)
Test [2] has as its target Epidermal growth factor receptor (Homo sapiens, UniProt P00533). In words: Inhibition of human A431 cells derived EGFR by ELISA.
The target of test [3] is Proto-oncogene tyrosine-protein kinase Src (Homo sapiens, UniProt P12931). Nature of the test: Inhibition of Src kinase (unknown origin).
Test [4] concerns A-431. In words: Potency index, ratio of temozolomide IC50 to compound IC50 for human A431 Cells. The class given is functional.

Chain of Proto-oncogene tyrosine-protein kinase Src (P12931 2-536 limits assumed): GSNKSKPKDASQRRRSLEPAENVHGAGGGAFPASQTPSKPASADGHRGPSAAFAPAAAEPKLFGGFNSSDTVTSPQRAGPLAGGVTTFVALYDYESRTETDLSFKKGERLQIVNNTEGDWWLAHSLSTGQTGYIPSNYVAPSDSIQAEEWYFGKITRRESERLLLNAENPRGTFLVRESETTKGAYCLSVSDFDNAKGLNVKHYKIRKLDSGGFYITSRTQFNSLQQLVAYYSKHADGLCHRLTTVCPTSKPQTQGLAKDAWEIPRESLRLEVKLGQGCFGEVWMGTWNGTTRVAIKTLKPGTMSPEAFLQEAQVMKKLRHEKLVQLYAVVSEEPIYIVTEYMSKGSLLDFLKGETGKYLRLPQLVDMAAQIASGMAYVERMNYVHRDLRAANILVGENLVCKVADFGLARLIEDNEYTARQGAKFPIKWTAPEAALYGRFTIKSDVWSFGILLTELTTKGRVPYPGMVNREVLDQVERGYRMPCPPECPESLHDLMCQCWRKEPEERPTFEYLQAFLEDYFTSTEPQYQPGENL
Chain of Epidermal growth factor receptor (P00533 whole entry): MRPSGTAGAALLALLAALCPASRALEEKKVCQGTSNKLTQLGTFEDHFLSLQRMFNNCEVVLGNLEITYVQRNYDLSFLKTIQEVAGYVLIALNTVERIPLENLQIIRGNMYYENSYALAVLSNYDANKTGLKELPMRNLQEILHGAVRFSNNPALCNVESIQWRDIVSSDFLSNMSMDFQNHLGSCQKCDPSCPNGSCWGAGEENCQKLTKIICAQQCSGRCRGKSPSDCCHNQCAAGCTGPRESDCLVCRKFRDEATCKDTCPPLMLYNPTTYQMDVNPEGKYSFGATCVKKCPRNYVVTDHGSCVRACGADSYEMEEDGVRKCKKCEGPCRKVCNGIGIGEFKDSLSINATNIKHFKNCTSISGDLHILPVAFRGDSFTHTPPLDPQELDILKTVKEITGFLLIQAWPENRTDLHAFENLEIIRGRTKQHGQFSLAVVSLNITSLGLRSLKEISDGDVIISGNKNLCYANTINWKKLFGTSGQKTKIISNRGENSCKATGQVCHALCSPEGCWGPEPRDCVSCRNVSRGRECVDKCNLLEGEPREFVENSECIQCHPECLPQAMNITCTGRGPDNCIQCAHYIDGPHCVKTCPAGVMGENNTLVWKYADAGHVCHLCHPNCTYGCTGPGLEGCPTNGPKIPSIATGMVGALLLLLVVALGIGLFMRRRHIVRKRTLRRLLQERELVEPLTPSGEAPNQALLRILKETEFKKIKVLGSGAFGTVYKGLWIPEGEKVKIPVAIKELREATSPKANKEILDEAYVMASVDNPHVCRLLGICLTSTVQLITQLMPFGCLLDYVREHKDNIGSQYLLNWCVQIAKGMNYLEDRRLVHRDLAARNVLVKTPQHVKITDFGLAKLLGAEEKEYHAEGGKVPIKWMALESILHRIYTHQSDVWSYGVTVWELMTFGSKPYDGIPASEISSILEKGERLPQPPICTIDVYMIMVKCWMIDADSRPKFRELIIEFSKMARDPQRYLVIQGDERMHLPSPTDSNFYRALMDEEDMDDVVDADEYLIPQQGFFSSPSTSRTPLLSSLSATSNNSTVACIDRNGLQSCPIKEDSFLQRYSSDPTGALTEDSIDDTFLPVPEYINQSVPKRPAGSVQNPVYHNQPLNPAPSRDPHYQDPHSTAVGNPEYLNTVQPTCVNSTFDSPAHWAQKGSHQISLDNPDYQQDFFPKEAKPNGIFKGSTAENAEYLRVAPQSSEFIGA

Molecule `Cc1cccc(Nc2ncnc3ccc(N)cc23)c1` yielded an IC50 with A-431 [1] of 59 µM. `CN(CCN(C)Cc1ccc(C(=O)Nc2ccc3ncnc(Nc4cccc(Cl)c4)c3c2)cc1)CCn1nc(-c2ccc(Cl)cc2)c2c(N)ncnc21`: the half-inhibitory concentration (IC50) turned out to be 0.32 µM in test [2] and 2.9 µM in test [3]. The molecule `C/N=N/Nc1ccc2ncnc(Nc3cccc(C)c3)c2c1` had an IC50 with A-431 [1] of 36 µM. Moreover, the “Ratio IC50” value with A-431 [4] is 10.

Usually IC50 stands for the concentration at which inhibition is half-maximal. A higher IC50 goes with a need for much substance.

These data come from ChEMBL document CHEMBL4138087, “Designing multi-targeted agents: An emerging anticancer drug discovery paradigm” (Eur J Med Chem, 2017).
